# Results as given in PubChem BioAssay (NCI).
#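 Growth conditions: 96-well plates. Treatment: test compound, 48 hours, 5 concentrations. Analysis: linear interpolation between bracketing concentrations; unreached endpoints set to highest concentration. GI50: concentration for 50% inhibition of growth. At the TGI there is no net growth.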
# Tests used:
# Assay in all cases: NCI tumour cell line growth inhibition, 48 h
# CAKI-1 renal = system: CAKI-1 renal
# COLO 205 colon = system: COLO 205 colon
# HOP-62 NSCLC = system: HOP-62 NSCLC
# HS 578T breast = system: HS 578T breast
# MDA-MB-435 = system: MDA-MB-435
# OVCAR-3 ovarian = system: OVCAR-3 ovarian
# SK-MEL-28 melanoma = system: SK-MEL-28 melanoma
# SW-620 colon = system: SW-620 colon
# U251 CNS = system: U251 CNS
# LOX IMVI melanoma = system: LOX IMVI melanoma
Compound,GI50 (CAKI-1 renal) [µM],TGI (CAKI-1 renal) [µM],GI50 (COLO 205 colon) [µM],TGI (COLO 205 colon) [µM],GI50 (HOP-62 NSCLC) [µM],TGI (HOP-62 NSCLC) [µM],GI50 (HS 578T breast) [µM],TGI (HS 578T breast) [µM],GI50 (MDA-MB-435) [µM],TGI (MDA-MB-435) [µM],GI50 (OVCAR-3 ovarian) [µM],TGI (OVCAR-3 ovarian) [µM],GI50 (SK-MEL-28 melanoma) [µM],TGI (SK-MEL-28 melanoma) [µM],GI50 (SW-620 colon) [µM],TGI (SW-620 colon) [µM],GI50 (U251 CNS) [µM],TGI (U251 CNS) [µM],TGI (LOX IMVI melanoma) [µM]
CCC[CH2][Sn]([CH2]CCC)([CH2]CCC)[O]C(=O)CC,0.0611,0.214,0.178,0.372,0.188,0.414,0.18,0.708,0.178,0.458,0.133,0.261,0.161,0.318,0.151,0.301,0.168,0.327,
CS(=O)(=O)N/N=C/CN1C(=O)c2ccccc2C1=O,,> 100,,> 100,,> 100,,,,,,> 100,,> 100,,> 100,,> 100,
CCCCOC(=O)C1C(c2ccc(Cl)cc2)NC(c2ccc(Cl)cc2)C(C(=O)OCCCC)S1(=O)=O (stereo not drawn),,> 100,,> 100,,> 100,,,,,,> 100,,> 100,,> 100,,> 100,> 100
O=c1nc2occc2cn1C1CC(O)C(CO)O1 (stereo not drawn),,> 100,,> 100,,> 100,,,,,,> 100,,> 100,,> 100,,> 100,> 100
COc1ccc(NC(=O)CCc2cc(-c3ccc(O)c(OC)c3)nc(NC#N)n2)cc1,,> 100,,> 100,,> 100,,,,,,> 100,,> 100,,> 100,,> 100,> 100
Cc1cc(Br)cc(C)c1NC(=O)C(=O)C(C(=O)c1ccc2ccccc2c1)C1OC(=O)c2ccccc21 (stereo not drawn),,51.1,,50.9,,18.7,,,,,,> 64.8,,14.2,,28.1,,18.7,31.1
COC(=O)C1=C(c2ccc3c(c2)OCO3)O[C@H](c2cc(OC)c(OC)c(OC)c2)[C@H]1COC(C)=O,,66.8,,3.02,,84.7,,,,,,8.22,,> 100,,> 100,,18.4,55.3
CCN(CC)CCOc1ccc(/C=C(\C#N)c2ccc(OCCN(CC)CC)cc2)cc1,,> 60.1,,23,,22.6,,,,,,> 63.1,,32,,29.6,,35.8,25.5
O=C1CN=C(C[N+](=O)[O-])c2ccccc21,,> 100,,> 100,,> 100,,,,,,> 100,,> 100,,> 100,,> 100,
Clc1ccc2c(NCCCNc3nccc(Nc4ccc(Br)cc4)n3)ccnc2c1,1.53,3,1.64,3.22,,,,,1.55,2.92,1.75,3.23,1.65,3.15,1.58,3.3,1.52,2.94,
COc1ccc(OC)c(NC(=O)C(=O)NNC(=O)c2sc(NNC(C)=O)nc2C)c1,,> 100,,,,> 100,,,,,,66.3,,> 100,,46.6,,> 100,83.3
O=C1OC(c2ccccc2)=N/C1=C/C=C/c1ccco1,,> 100,,> 100,,,,,,,,> 100,,> 100,,> 100,,> 100,
COC(=O)C12C3C4C1C1C2C3C41C(=O)OC(C)(C)C (stereo not drawn),,> 100,,> 100,,> 100,,,,,,> 100,,> 100,,> 75,,> 100,> 61.2
COC(=O)C1=C(C)N(NC(=O)c2ccccc2)C(C)(O)C12CCOC2=O (stereo not drawn),,> 100,,> 100,,> 100,,,,,,> 100,,> 100,,> 100,,> 100,> 100
Cc1ccc(SC(C)/C=C/NNC2=NC(c3ccccc3)C(c3ccccc3)=NN2)cc1 (stereo not drawn),,46.6,,> 100,,,,,,,,> 100,,> 100,,> 100,,,> 100
S=C(N/N=C/c1ccco1)NC12CC3CC(CC(C3)C1)C2,,> 100,,33.4,,> 100,,,,,,> 100,,> 100,,> 100,,> 100,> 100
C=C(CCCCC)CN1CCCC1[C@@](C)(O)CC(=O)OCC (stereo partly drawn),,> 100,,> 100,,> 100,,,,,,> 100,,> 100,,> 100,,> 100,> 100
O=C1c2ccccc2C(=O)C1(Cl)C1(S(=O)(=O)O)c2ccccc2-c2ccccc21,,> 100,,> 100,,> 100,,,,,,> 100,,> 100,,> 100,,> 100,> 100
